Laboratory results reported in the Kinase Knowledgebase extract (Sharma et al. 2016).
pIC50: −log10 of the molar value.

Columns and labels:
[1] = biological target: EGFR (human) (UniProt P00533); conditions: a431
[2] = biological target: EGFR (human) (UniProt P00533)

EGFR (human), sequence (P00533 whole entry, looked up): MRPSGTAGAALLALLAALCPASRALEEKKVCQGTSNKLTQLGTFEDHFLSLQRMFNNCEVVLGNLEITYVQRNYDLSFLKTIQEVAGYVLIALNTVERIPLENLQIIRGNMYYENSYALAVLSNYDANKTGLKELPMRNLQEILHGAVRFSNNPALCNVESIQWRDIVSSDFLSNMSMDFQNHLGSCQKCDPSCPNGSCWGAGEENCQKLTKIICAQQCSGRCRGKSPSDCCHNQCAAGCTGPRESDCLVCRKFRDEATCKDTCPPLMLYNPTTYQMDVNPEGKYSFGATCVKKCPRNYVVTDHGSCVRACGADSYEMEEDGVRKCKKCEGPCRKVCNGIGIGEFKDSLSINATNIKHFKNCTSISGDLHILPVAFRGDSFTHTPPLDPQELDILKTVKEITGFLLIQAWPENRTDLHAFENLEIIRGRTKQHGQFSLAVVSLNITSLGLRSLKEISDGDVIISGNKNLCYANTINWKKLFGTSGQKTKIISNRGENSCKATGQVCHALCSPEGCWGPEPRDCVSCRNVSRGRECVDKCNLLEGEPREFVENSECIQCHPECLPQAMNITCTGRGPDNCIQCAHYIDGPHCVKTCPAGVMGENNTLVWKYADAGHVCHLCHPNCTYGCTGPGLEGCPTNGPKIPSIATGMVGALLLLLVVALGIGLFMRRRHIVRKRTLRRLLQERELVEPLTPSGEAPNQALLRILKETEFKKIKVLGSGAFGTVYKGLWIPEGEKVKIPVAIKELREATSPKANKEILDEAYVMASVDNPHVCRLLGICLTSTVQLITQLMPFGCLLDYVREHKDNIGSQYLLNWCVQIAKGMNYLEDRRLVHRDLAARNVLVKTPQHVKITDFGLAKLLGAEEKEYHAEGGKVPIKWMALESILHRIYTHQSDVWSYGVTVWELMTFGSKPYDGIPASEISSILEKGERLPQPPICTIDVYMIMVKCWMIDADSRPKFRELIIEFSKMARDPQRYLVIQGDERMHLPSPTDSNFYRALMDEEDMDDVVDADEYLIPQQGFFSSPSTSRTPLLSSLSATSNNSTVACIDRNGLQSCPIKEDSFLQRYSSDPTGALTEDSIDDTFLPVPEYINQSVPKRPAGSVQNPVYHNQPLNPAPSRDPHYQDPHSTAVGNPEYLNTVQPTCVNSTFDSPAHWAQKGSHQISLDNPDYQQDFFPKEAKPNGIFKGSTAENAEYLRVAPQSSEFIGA

Structure (SMILES)	pIC50 [1]	pIC50 [2]
O[C@H](CN1CCC[C@@H]1CN1CCCC1)Cn1ccc(-c2ccc3ncnc(Nc4ccc(OCc5cccc(F)c5)c(Cl)c4)c3c2)c1	6.13	7.02
O=C(Cn1ccc(-c2ccc3ncnc(Nc4ccc(OCc5cccc(F)c5)c(Cl)c4)c3c2)c1)NC1CCS(=O)(=O)CC1	5.43	6.85
CCN(CC)CC(O)Cn1ccc(-c2ccc3ncnc(Nc4ccc(OCc5cccc(F)c5)c(Cl)c4)c3c2)c1 (configuration not stated)	6.46	7.64
COCCCN1CCOC(Cn2ccc(-c3ccc4ncnc(Nc5ccc6c(cnn6Cc6cccc(F)c6)c5)c4c3)c2)C1 (configuration not stated)	6.08	6.54
O=S1(=O)CCC(CNCc2cc(-c3ccc4ncnc(Nc5ccc6c(cnn6Cc6cccc(F)c6)c5)c4c3)c[nH]2)CC1	5.96	8.15
CCN(CC)C[C@H](O)Cn1ccc(-c2ccc3ncnc(Nc4ccc5c(cnn5Cc5cccc(F)c5)c4)c3c2)c1	6.66	7.42
Fc1ccc(Nc2ncnc3ccc(-n4cccc4)cc23)cc1Cl	7.15	7.21
O=C(C1CC1)N1CCN(CC(O)Cn2ccc(-c3ccc4ncnc(Nc5ccc(OCc6cccc(F)c6)c(Cl)c5)c4c3)c2)CC1 (configuration not stated)	5.96	6.71
CC(=O)NC1CCN(C(=O)Cn2ccc(-c3ccc4ncnc(Nc5ccc(OCc6cccc(F)c6)c(Cl)c5)c4c3)c2)CC1	6.02	6.99
CS(=O)(=O)CCNCc1cc(-c2ccc3ncnc(Nc4ccc(OCc5cccc(F)c5)c(Cl)c4)c3c2)c[nH]1	6.60	7.96
Fc1cccc(COc2ccc(Nc3ncnc4ccc(-c5ccn(CCN6CCN(CC7CC7)CC6)c5)cc34)cc2Cl)c1	5.82	7.03
Fc1cccc(COc2ccc(Nc3ncnc4ccc(-c5ccn(CCNC6CC6)c5)cc34)cc2Cl)c1	6.13	6.62
CCN(CC)CCNCc1ccc(-c2ccc3ncnc(Nc4ccc(OCc5cccc(F)c5)c(Cl)c4)c3c2)[nH]1	5.84	7.74
OCCN1CCOC(Cn2ccc(-c3ccc4ncnc(Nc5ccc6c(cnn6Cc6cccc(F)c6)c5)c4c3)c2)C1 (configuration not stated)	6.32	6.69
CCN(CC)C[C@@H](O)Cn1ccc(-c2ccc3ncnc(Nc4ccc5c(cnn5Cc5cccc(F)c5)c4)c3c2)c1	6.41	7.15
Fc1cccc(Cn2ncc3cc(Nc4ncnc5ccc(-c6ccn(CC7CN(CCN8CCOCC8)CCO7)c6)cc45)ccc32)c1 (configuration not stated)	5.89	6.56
CS(=O)(=O)CCNCc1ccc(-c2ccc3ncnc(Nc4ccc(OCc5ccccn5)c(Cl)c4)c3c2)[nH]1	6.24	7.89
Fc1cccc(COc2ccc(Nc3ncnc4ccc(-c5ccn(CCc6ccncc6)c5)cc34)cc2Cl)c1	6.06	6.78
Fc1cccc(Cn2ncc3cc(Nc4ncnc5ccc(-n6cccc6)cc45)ccc32)c1	7.10	8.22
C[C@@H]1CN(C(=O)Cn2ccc(-c3ccc4ncnc(Nc5ccc(OCc6cccc(F)c6)c(Cl)c5)c4c3)c2)C[C@H](C)N1	6.11	7.92
OC(CN1CCN(CC2CC2)CC1)Cn1ccc(-c2ccc3ncnc(Nc4ccc(OCc5cccc(F)c5)c(Cl)c4)c3c2)c1 (configuration not stated)	6.39	7.10

Structure (SMILES)	pIC50 [1]	pIC50 [2]
CN1CCN(CC(O)Cn2ccc(-c3ccc4ncnc(Nc5ccc6c(cnn6Cc6cccc(F)c6)c5)c4c3)c2)CC1 (configuration not stated)	6.11	8.70
O[C@H](CN1CCOCC1)Cn1ccc(-c2ccc3ncnc(Nc4ccc5c(cnn5Cc5cccc(F)c5)c4)c3c2)c1	6.13	7.72
O=C(Cn1ccc(-c2ccc3ncnc(Nc4ccc(OCc5cccc(F)c5)c(Cl)c4)c3c2)c1)N1CCC(N2CCCCC2)CC1	6.53	7.10
CS(=O)(=O)N1CCOC(Cn2ccc(-c3ccc4ncnc(Nc5ccc6c(cnn6Cc6cccc(F)c6)c5)c4c3)c2)C1 (configuration not stated)	6.61	6.59
O=C1OCCc2cn(-c3ccc4ncnc(Nc5ccc(OCc6ccccn6)c(Cl)c5)c4c3)cc21	6.09	8.10
O=C(NCC1CCS(=O)(=O)CC1)c1cc(-c2ccc3ncnc(Nc4ccc(OCc5cccc(F)c5)c(Cl)c4)c3c2)c[nH]1	6.15	6.94
O[C@H](CN1CCOCC1)Cn1ccc(-c2ccc3ncnc(Nc4ccc(OCc5cccc(F)c5)c(Cl)c4)c3c2)c1	6.29	7.74
O=S1(=O)CCC(NCCn2ccc(-c3ccc4ncnc(Nc5ccc(OCc6cccc(F)c6)c(Cl)c5)c4c3)c2)CC1	5.85	6.31
Fc1cccc(COc2ccc(Nc3ncnc4ccc(-c5cc(CNCCN6CCOCC6)c[nH]5)cc34)cc2Cl)c1	6.62	8.10
Fc1cccc(COc2ccc(Nc3ncnc4ccc(-c5cc[nH]c5)cc34)cc2Cl)c1	7.30	8.40
CCN(CC)CCNCc1ccn(-c2ccc3ncnc(Nc4ccc(OCc5cccc(F)c5)c(Cl)c4)c3c2)c1	6.70	8.10
CN1CCN(CC(O)Cn2ccc(-c3ccc4ncnc(Nc5ccc(OCc6cccc(F)c6)c(Cl)c5)c4c3)c2)CC1 (configuration not stated)	7.08	7.44
CS(=O)(=O)CCNC1CCN(C[C@@H](O)Cn2ccc(-c3ccc4ncnc(Nc5ccc(OCc6cccc(F)c6)c(Cl)c5)c4c3)c2)CC1	5.44	7.96
CCN(CC)CCNCc1cccn1-c1ccc2ncnc(Nc3ccc(OCc4cccc(F)c4)c(Cl)c3)c2c1	6.11	7.65
Clc1cc(Nc2ncnc3ccc(-c4ccc[nH]4)cc23)ccc1OCc1ccccn1	7.05	8.30
O=C(Cn1ccc(-c2ccc3ncnc(Nc4ccc(OCc5cccc(F)c5)c(Cl)c4)c3c2)c1)NCC1(O)CCS(=O)(=O)CC1	5.81	7.77
OC(CNC1CC1)Cn1ccc(-c2ccc3ncnc(Nc4ccc5c(cnn5Cc5cccc(F)c5)c4)c3c2)c1 (configuration not stated)	6.45	7.92
CCN(CC)CC(O)Cn1ccc(-c2ccc3ncnc(Nc4ccc5c(cnn5Cc5cccc(F)c5)c4)c3c2)c1 (configuration not stated)	6.92	7.70
O=C(Cn1ccc(-c2ccc3ncnc(Nc4ccc(OCc5cccc(F)c5)c(Cl)c4)c3c2)c1)N[C@H]1CC[C@H](O)CC1	6.49	6.58
Fc1cccc(COc2ccc(Nc3ncnc4ccc(-c5ccn(C[C@H]6CN7CCC[C@@H]7CO6)c5)cc34)cc2Cl)c1	5.88	7.13

The remaining lines, values ahead:

pIC50 [1]	pIC50 [2]	Structure (SMILES)
6.24	8.30	O=C1OCCc2cn(-c3ccc4ncnc(Nc5ccc(OCc6cccc(F)c6)c(Cl)c5)c4c3)cc21
6.44	8.52	Fc1cccc(COc2ccc(Nc3ncnc4ccc(-n5cccc5)cc34)cc2Cl)c1
6.35	7.68	OC(CN1CCCCC1)Cn1ccc(-c2ccc3ncnc(Nc4ccc(OCc5cccc(F)c5)c(Cl)c4)c3c2)c1 (configuration not stated)
7.70	8.52	Fc1cccc(COc2ccc(Nc3ncnc4ccc(-n5ccc(CNCCN6CCOCC6)c5)cc34)cc2Cl)c1
6.68	8.40	OCCc1cn(-c2ccc3ncnc(Nc4ccc(OCc5cccc(F)c5)c(Cl)c4)c3c2)cc1CN1CCOCC1
6.11	7.30	CS(=O)(=O)CCNCc1ccn(-c2ccc3ncnc(Nc4ccc(OCc5cccc(F)c5)c(Cl)c4)c3c2)c1
5.70	8.05	Fc1cccc(COc2ccc(Nc3ncnc4ccc(-c5ccn(CCCN6CCCCC6)c5)cc34)cc2Cl)c1
7.05	7.82	O=C(c1cn(-c2ccc3ncnc(Nc4ccc(OCc5cccc(F)c5)c(Cl)c4)c3c2)cc1CCO)N1CCCC1
5.98	7.26	Fc1cccc(COc2ccc(Nc3ncnc4ccc(-n5cc(CNCCN6CCCC6)c(C(F)(F)F)c5)cc34)cc2Cl)c1
7.40	7.28	OCCn1ccc(-c2ccc3ncnc(Nc4ccc(OCc5cccc(F)c5)c(Cl)c4)c3c2)c1
6.66	7.27	OCCc1cn(-c2ccc3ncnc(Nc4ccc(OCc5cccc(F)c5)c(Cl)c4)c3c2)cc1CN1CCCCC1
6.92	6.97	CN1CCN(CCNC(=O)c2cn(-c3ccc4ncnc(Nc5ccc(OCc6ccccn6)c(Cl)c5)c4c3)cc2CCO)CC1
6.11	7.66	O=C(Cn1ccc(-c2ccc3ncnc(Nc4ccc(OCc5cccc(F)c5)c(Cl)c4)c3c2)c1)N1CCOCC1
6.70	7.11	COCCNC(=O)c1cn(-c2ccc3ncnc(Nc4ccc(OCc5ccccn5)c(Cl)c4)c3c2)cc1CCO
6.53	8.22	CN1CCN(C(=O)Cn2ccc(-c3ccc4ncnc(Nc5ccc(OCc6cccc(F)c6)c(Cl)c5)c4c3)c2)CC1
6.80	7.49	CN1CCN(CCNCc2cn(-c3ccc4ncnc(Nc5ccc(OCc6cccc(F)c6)c(Cl)c5)c4c3)cc2C(F)(F)F)CC1
5.84	8.30	CN1CCN(C(=O)c2cn(-c3ccc4ncnc(Nc5ccc(OCc6cccc(F)c6)c(Cl)c5)c4c3)cc2CCO)CC1
6.70	8.05	CCN(CC)Cc1ccn(-c2ccc3ncnc(Nc4ccc(OCc5cccc(F)c5)c(Cl)c4)c3c2)c1
6.32	7.31	COCCNCc1cn(-c2ccc3ncnc(Nc4ccc(OCc5cccc(F)c5)c(Cl)c4)c3c2)cc1C(F)(F)F
5.63	7.70	O=C(NCCN1CCOCC1)c1cn(-c2ccc3ncnc(Nc4ccc(OCc5cccc(F)c5)c(Cl)c4)c3c2)cc1CCO
7.30	7.31	O=C(c1cn(-c2ccc3ncnc(Nc4ccc(OCc5ccccn5)c(Cl)c4)c3c2)cc1CCO)N1CCOCC1
7.30	8.52	O=C(c1cn(-c2ccc3ncnc(Nc4ccc(OCc5cccc(F)c5)c(Cl)c4)c3c2)cc1CCO)N1CCCCC1
6.17	8.44	CCN(CC)CCNC(=O)c1cn(-c2ccc3ncnc(Nc4ccc(OCc5cccc(F)c5)c(Cl)c4)c3c2)cc1CCO
6.68	7.59	CN1CCN(Cc2cn(-c3ccc4ncnc(Nc5ccc(OCc6ccccn6)c(Cl)c5)c4c3)cc2CCO)CC1
7.29	7.29	O=C(Cn1ccc(-c2ccc3ncnc(Nc4ccc(OCc5cccc(F)c5)c(Cl)c4)c3c2)c1)N1CCN(CCO)CC1
